One assay addresses T1, Cripto protein (Mus musculus, UniProt P51865).
T1 construct: made in house
In words: ELISA binding of recombinant Cripto to plate-coated peptide. As to conditions: peptide coated at 50 μM; Cripto 50 to 200 ng/ml. How it is done: To evaluate the binding of Cripto BP to either Cripto or ALK-4 receptor, BP or control peptides (CP; 50 μM) were coated on the surface of a 96-well microtiter plate and incubated over night at 4° C. Wells were washed five times with PBS Tween (PBT) and the aspecific sites blocked for 3 h at RT with 1% Bovine Serum Albumin (BSA) in PBS, 180 μL/well. Wells were washed as above, and the recombinant form of either ALK-4-humanFc chimeric receptor or Cripto protein in PBT were added at the indicated concentrations and incubated for 1 h at 37° C. followed by 1 hr at RT. After washing with PBT, to evaluate the binding of Cripto to 26-23-23, rabbit anti-Cripto IgG (6 μg/ml) were added to the plates and incubated 1 h at 37° C. and 1 hr at RT. After washing in PBT, a goat anti-rabbit […] (Santa Crutz) was added to the plate (0.3 μg/ml) and incubated 1 h at RT. Finally, the plate was developed as reported above. To evaluate the binding of ALK4 to 26-23-23, the extracellular domain of ALK-4 receptor fused to human Fc (R&D Systems) was added at the indicated concentrations and a goat anti-human Fc (Jackson ImmunoResearch; 1:1000) was used.

For another assay, the system named is wild-type EBs. In words: Neuronal differentiation of wild-type EBs, βIII-tubulin immunofluorescence grades. The assay is classed as cell-based, mouse. To be noted: 25 μM peptide, 13 day-old EBs, mean±SD. The procedure: Undifferentiated ESCs were cultured as previously described^55.
Immunofluorescence analysis on adherent EBs, dopaminergic differentiated ESC and striatal grafts were performed as previously described^29, 35. The following primary antibodies were used: mouse anti-βIII-tubulin (Tuj1, 1:1000, Promega); anti-βIII tubulin (Sigma; 1:400), rabbit anti-tyrosine hydroxylase (TH, 1:200, PelFreez); mouse anti-TH (1:500, Chemicon); Nurr-1 (1:250, Santa Cruz); rabbit anti-Pitx3 (1:200, InVitrogen), rabbit anti-GIRK-2 (1:100, Chemicon); rat anti-DAT (1:1000, Chemicon); rabbit anti-5HT (1:200, Biogenesis); rabbit anti-NET (1:20, Chemicon), rabbit anti-GABA (1:500, Sigma); rabbit anti-Ki67 (1:1000, Neomarkers); and rat anti-Nestin (1:100, Developmental Studies Hybridoma Bank). Appropriate fluorophore conjugated secondary antibodies were used for visualization: (Cyanin-2, Cy3 and Cy5, 1:500, Jackson ImmunoResearch or Alexa-488, Alexa-594 and Alexa-633, 1:200, Molecular Probes).
Thus, if specific and effective, Cripto BP should be able to re-direct ESC fate and promote neural induction and neurogenesis. To address this issue, 2 day-old wild-type EBs were treated as described above, with either control (CP), dimeric (DP) or blocking (BP) peptides and both morphological and immunofluorescence analysis were performed on 13 day-old EBs. […]

A further assay has as its system R1 ESC. As to the kind of experiment: Dopaminergic differentiation of ESCs on PA6 stromal cells. The assay is classed as cell-based, mouse. The procedure: For more specific dopaminergic differentiation, R1 ESC were plated on a confluent monolayer of mitomycin-C treated (2 hour, 20 ug/ml, Sigma) stromal PA6 cells (Riken Cell Bank) at a density of 100 cells/cm^2 and differentiated based on the methods of Barberi et al, 2003 with the following modifications, FIG. 7(a)^27. Cells were initially cultured in serum-replacement media (Dulbecco's modified Eagle medium with 15% serum replacement, 2 mM L-glutamine and 10 uM β-mercaptoethanol, Gibco-Invitrogen) containing Noggin (300 ng/ml, R&D Systems). After 5 days the media was replenished and supplemented with Noggin plus morphogens fibroblast growth factor-8 (FGF8, 100 ng/ml) and Sonic Hedgehog (Shh, 500 ng/ml), previously shown to be important in midbrain DA neuron development. At day 8, cultures were changed into N2 media (a 1:1 mixture of F12 and MEM with 15 mM HEPES buffer, 1 mM glutamine, 6 mg/ml glucose (Sigma-Aldrich), 3 mg/ml Albumax and N2 supplement (all purchased from Invitrogen)) supplemented with FGF2 (20 ng/ml), Shh, FGF8 and Wnt5a (previously shown to be important in the differentiation of dopaminergic precursors in vitro and in vivo^25, 56. Finally at day 11, cultures were exposed to survival factors brain derived neurotrophic factor (BDNF, 30 ng/ml), glial derived neurotrophic factor (GDNF, 30 ng/ml) and ascorbic acid (AA, 100 uM). In addition, peptides (Control peptide, CP; Dimer peptide, DP or Cripto Blocking peptide, Cripto BP, 12.5 uM) were added to the cultures from day 1-11. Peptides were replenished in the media every second day.
Hoescht counterstaining was used for visualization of all cells within the cultures. The proportion of neuron containing colonies (labeled for using the immature neuronal marker βIII-tubulin (Tuj1)) and the number of dopaminergic neurons/μm^2 colony (identified using a marker for the precursor enzyme in DA synthesis, TH) were counted. Differentiation experiments were performed in triplicate.
The authors next examined whether DA differentiation could be promoted. To this end, the authors used a DA differentiation protocol involving co-culturing on stromal cells^27, to which additional modifications were incorporated (FIG. 7a). In brief, ESCs were plated at low density onto stromal cells (PA6) for a period of 5 days, to promote neural induction. From day 0-8, cultures were treated with noggin to enhance neuronal induction. From day 8-11, cultures where changed into neuronal (N2) media in the presence of Shh and FGF-8 (for ventral midbrain patterning) and basic FGF (to expand the pool of DA precursors), as well as Wnt5a (involved in DA neuron differentiation in vitro and in vivo^25, 43). Control peptide (CP) or Cripto BP (BP) were added to the differentiating ESCs from day 1 to day 11. […]

[1] abbreviates: peptide 12.5 uM day 1-11, 14 days on PA6.

SMILES strings stand for the structures.

T1 sequence (P51865 18-156 limits assumed): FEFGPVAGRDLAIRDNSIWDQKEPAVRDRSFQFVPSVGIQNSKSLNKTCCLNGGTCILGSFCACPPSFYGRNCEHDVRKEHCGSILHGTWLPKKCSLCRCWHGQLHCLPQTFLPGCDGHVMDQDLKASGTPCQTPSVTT

As to `C[S+]([O-])CCC(N)C(=O)N[C@@H](CSCc1ccccc1)C(=O)N[C@@H](CSCc1ccccc1)C(=O)N[C@@H](CCCCNC(=O)[C@H](CSCc1ccccc1)NC(=O)[C@H](CSCc1ccccc1)NC(=O)[C@@H](N)CC[S+](C)[O-])C(=O)N[C@@H](CCCCNC(=O)[C@H](CCCCNC(=O)[C@H](CSCc1ccccc1)NC(=O)[C@H](CSCc1ccccc1)NC(=O)[C@@H](N)CC[S+](C)[O-])NC(=O)[C@H](CSCc1ccccc1)NC(=O)[C@H](CSCc1ccccc1)NC(=O)[C@@H](N)CC[S+](C)[O-])C(=O)NCC(=O)O` (stereo partly shown) [Cripto BP], the “binding of recombinant Cripto to immobilized peptide” value on Cripto protein is recorded as “specifically recognized the immobilized Cripto BP, in a dose-dependent manner”. In the assay on wild-type EBs, the “EBs with Grade 0 phenotype (absence of neurons)” value is 17.4%±1.15 and the “EBs with Grade 3 phenotype (full neuronal differentiation)” value was 45.6%±5.2. Moreover, the “yield of DA neurons derived from wildtype ESCs” value in the assay on R1 ESC (Noggin and Wnt5a in conjunction with Cripto BP) is listed as “enhanced further”. For the same compound, the “DA neurons per TH-ir colony” value with R1 ESC (peptide 12.5 uM day 1-11) is 286 % greater than control. Further, in the assay with R1 ESC (setting [1]), the “colonies immunoreactive for βIII-tubulin” value was found to be 91% and the “proportion of colonies containing TH-ir DA neurons” value was determined as 62%.

The record behind these values is patent US20110028401A1, “CRIPTO BLOCKING MOLECULES AND THERAPEUTIC USES THEREOF” (CONSIGLIO NAZIONALE DELLE RICERCHE, priority 2009, published 2011).
